Data taken from patent US20250059182A1, “SOS1 INHIBITORS” (Mirati Therapeutics, Inc., priority 2021, published 2025).
Counter-ions that a name gives are not always drawn. Like-named read-outs stand apart in the source and are kept apart here.

Legend:
[1] = target: T1, recombinant human SOS1 polypeptide (amino acids 560-1049) (Homo sapiens, UniProt Q07889); test: HTRF displacement assay: inhibition of labeled tracer binding to SOS1; details: Table A1, Morrison equation for competitive binding
T1 construct: corresponding to amino acids 560-1049, expressed in E. Coli; made in house; host or cells: E. coli
T1 sequence (Q07889 560-1049): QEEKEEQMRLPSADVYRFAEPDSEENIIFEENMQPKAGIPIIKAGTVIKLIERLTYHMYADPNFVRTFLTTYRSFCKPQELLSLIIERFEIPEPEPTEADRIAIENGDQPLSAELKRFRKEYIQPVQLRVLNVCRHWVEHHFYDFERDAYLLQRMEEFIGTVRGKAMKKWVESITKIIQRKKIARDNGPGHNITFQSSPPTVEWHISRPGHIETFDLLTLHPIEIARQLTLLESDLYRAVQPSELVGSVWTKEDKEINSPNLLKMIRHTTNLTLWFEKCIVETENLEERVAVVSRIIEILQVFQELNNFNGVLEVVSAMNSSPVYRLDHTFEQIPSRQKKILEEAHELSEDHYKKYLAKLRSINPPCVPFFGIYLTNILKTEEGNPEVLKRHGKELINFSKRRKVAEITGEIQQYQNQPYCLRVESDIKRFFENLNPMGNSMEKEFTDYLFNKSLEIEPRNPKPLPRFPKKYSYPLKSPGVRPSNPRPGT

pERK in MKN1 cells = test: pERK inhibition, In-Cell Western (LI-COR Odyssey), MKN1 cells; format: cell-based; details: Homo sapiens
In short: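 MKN1 cells were exposed for about 0.5–1 h at 37 °C to nine 3-fold dilutions starting at 10 µM. Cells were then fixed in formaldehyde, permeabilised with methanol, and immunostained for pERK and GAPDH with near-infrared secondary antibodies. GAPDH-normalised pERK signal relative to vehicle gave % inhibition, from which IC50 was fitted.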

[2] = MKN-1, Table B1, MKN1 or H358 cells (table does not say which), 0.5-1 hour incubation, read-out: IC50 (nM), pERK inhibition
[3] = MKN-1, read-out: IC50 (nM), pERK inhibition

Row | SMILES | Ki [1] | IC50 (pERK in MKN1 cells; [2]) | IC50 (pERK in MKN1 cells; [3])
1 | CC(=O)N1CC2(CCN2c2cc3c(N[C@H](C)c4cccc(C#N)c4C)nnc(C)c3cn2)C1 [Example P-215, (R)-3-(1-((7-(6-acetyl-1,6-diazaspiro[3.3]heptan-1-yl)-4-methylpyrido[3,4-d]pyridazin-1-yl)amino)ethyl)-2-methylbenzonitrile] | 2.23 nM | 38.7 nM | 
2 | CC(=O)N1CC2(CCN2c2cc3c(N[C@H](C)c4cccc(C#N)c4C)nnc(C)c3cc2F)C1 [Example P-216, (R)-3-(1-((7-(6-acetyl-1,6-diazaspiro[3.3]heptan-1-yl)-6-fluoro-4-methylphthalazin-1-yl)amino)ethyl)-2-methylbenzonitrile formic acid salt] | 1.98 nM |  | 27.9 nM
3 | COCCN1CC2(CCN2c2cc3c(N[C@H](C)c4cccc(C#N)c4C)nnc(C)c3cn2)C1 [Example P-217, (R)-3-(1-((7-(6-(2-methoxyethyl)-1,6-diazaspiro[3.3]heptan-1-yl)-4-methylpyrido[3,4-d]pyridazin-1-yl)amino)ethyl)-2-methylbenzonitrile formic acid salt] | 0.762 nM |  | 43.1 nM
4 | COCCN1CC2(CCN2c2cc3c(N[C@H](C)c4cccc(C#N)c4C)nnc(C)c3cc2F)C1 [Example P-218, (R)-3-(1-((6-fluoro-7-(6-(2-methoxyethyl)-1,6-diazaspiro[3.3]heptan-1-yl)-4-methylphthalazin-1-yl)amino)ethyl)-2-methylbenzonitrile formic acid salt] | 0.786 nM |  | 60.3 nM
5 | Cc1c(C#N)cccc1[C@@H](C)Nc1nnc(C)c2cc(F)c(N3CCC34CN(CCO)C4)cc12 [Example P-219, (R)-3-(1-((6-fluoro-7-(6-(2-hydroxyethyl)-1,6-diazaspiro[3.3]heptan-1-yl)-4-methylphthalazin-1-yl)amino)ethyl)-2-methylbenzonitrile] | 0.665 nM | 41.1 nM | 
6 | Cc1c(C#N)cccc1[C@@H](C)Nc1nnc(C)c2cc(F)c(N3CCC34CN(CCC(=O)O)C4)cc12 [Example P-220, (R)-3-(1-(4-((1-(3-cyano-2-methylphenyl)ethyl)amino)-7-fluoro-1-methylphthalazin-6-yl)-1,6-diazaspiro[3.3]heptan-6-yl)propanoic acid] | 0.678 nM | 4110 nM | 
7 | CNc1cc2c(N[C@H](C)c3cccc(C#N)c3C)nnc(C)c2cc1F [Example P-221, (R)-3-(1-((6-fluoro-4-methyl-7-(methylamino)phthalazin-1-yl)amino)ethyl)-2-methylbenzonitrile] | 8.75 nM | 154 nM | 
8 | Cc1c(C#N)cccc1[C@@H](C)Nc1nnc(C)c2cc(F)c(N(C)C)cc12 [Example P-222, (R)-3-(1-((7-(dimethylamino)-6-fluoro-4-methylphthalazin-1-yl)amino)ethyl)-2-methylbenzonitrile] | 3.97 nM | 188 nM | 
9 | Cc1c(C#N)cccc1[C@@H](C)Nc1nnc(C)c2cc(F)c(N3CCC3)cc12 [Example P-223, (R)-3-(1-((7-(azetidin-1-yl)-6-fluoro-4-methylphthalazin-1-yl)amino)ethyl)-2-methylbenzonitrile formic acid salt] | 9.3 nM |  | 141 nM
10 | Cc1c(C#N)cccc1[C@@H](C)Nc1nnc(C)c2cnc(N3CCC3)cc12 [Example P-224, (R)-3-(1-((7-(azetidin-1-yl)-4-methylpyrido[3,4-d]pyridazin-1-yl)amino)ethyl)-2-methylbenzonitrile] | 3.62 nM | 41.4 nM | 
11 | Cc1nnc(N[C@H](C)c2cccc(C(F)F)c2F)c2cc(N3CCC34CN(CCCF)C4)ncc12 [Example P-226, (R)-N-(1-(3-(difluoromethyl)-2-fluorophenyl)ethyl)-7-(6-(3-fluoropropyl)-1,6-diazaspiro[3.3]heptan-1-yl)-4-methylpyrido[3,4-d]pyridazin-1-amine formic acid salt] | 0.288 nM |  | 62.3 nM
12 | Cc1nnc(N[C@H](C)c2cccc(C(F)F)c2F)c2cc(N3CCN(CCCF)CC3)ncc12 [Example P-227, (R)-N-(1-(3-(difluoromethyl)-2-fluorophenyl)ethyl)-7-(4-(3-fluoropropyl)piperazin-1-yl)-4-methylpyrido[3,4-d]pyridazin-1-amine] | 0.396 nM | 223 nM | 
13 | Cc1c(C#N)cccc1[C@@H](C)Nc1nnc(C)c2cnc(N3CCN(CCCF)CC3)cc12 [Example P-229, (R)-3-(1-((7-(4-(3-fluoropropyl)piperazin-1-yl)-4-methylpyrido[3,4-d]pyridazin-1-yl)amino)ethyl)-2-methylbenzonitrile] | 0.671 nM | 59.3 nM | 
14 | Cc1c(C#N)cccc1[C@@H](C)Nc1nnc(C)c2cc(F)c(N3CCC34COC4)cc12 [Example P-230, (R)-3-(1-((6-fluoro-4-methyl-7-(6-oxa-1-azaspiro[3.3]heptan-1-yl)phthalazin-1-yl)amino)ethyl)-2-methylbenzonitrile] | 2.51 nM | 26 nM | 
15 | Cc1c(C#N)cccc1[C@@H](C)Nc1nnc(C)c2cnc(N3CCC34COC4)cc12 [Example P-231, (R)-2-methyl-3-(1-((4-methyl-7-(6-oxa-1-azaspiro[3.3]heptan-1-yl)pyrido[3,4-d]pyridazin-1-yl)amino)ethyl)benzonitrile formic acid salt] | 3.34 nM |  | 4290 nM
16 | Cc1nnc(N[C@H](C)c2cccc(C(F)F)c2F)c2cc(N3CCC34COC4)c(F)cc12 [Example P-232, (R)-N-(1-(3-(difluoromethyl)-2-fluorophenyl)ethyl)-6-fluoro-4-methyl-7-(6-oxa-1-azaspiro[3.3]heptan-1-yl)phthalazin-1-amine] | 1.18 nM | 7130 nM | 
17 | Cc1nnc(N[C@H](C)c2cccc(C(F)F)c2F)c2cc(N3CCC34COC4)ncc12 [Example P-233, (R)-N-(1-(3-(difluoromethyl)-2-fluorophenyl)ethyl)-4-methyl-7-(6-oxa-1-azaspiro[3.3]heptan-1-yl)pyrido[3,4-d]pyridazin-1-amine] | 2.75 nM | 18.8 nM | 
18 | Cc1nnc(N[C@H](C)c2cccc(C(F)F)c2F)c2cc(N3CCC34CN(C)C4)c(F)cc12 [Example P-234, (R)-N-(1-(3-(difluoromethyl)-2-fluorophenyl)ethyl)-6-fluoro-4-methyl-7-(6-methyl-1,6-diazaspiro[3.3]heptan-1-yl)phthalazin-1-amine] | 0.416 nM | 50.2 nM | 
19 | Cc1c(C#N)cccc1[C@@H](C)Nc1nnc(C)c2ccc(N3CCC34CN(C)C4)cc12 [Example P-235, (R)-2-methyl-3-(1-((4-methyl-7-(6-methyl-1,6-diazaspiro[3.3]heptan-1-yl)phthalazin-1-yl)amino)ethyl)benzonitrile formic acid salt] | 0.618 nM |  | 95.8 nM
20 | Cc1nnc(N[C@H](C)c2cccc(C(F)F)c2F)c2cc(N3CCC34CN(C)C4)ccc12 [Example P-236, (R)-N-(1-(3-(difluoromethyl)-2-fluorophenyl)ethyl)-4-methyl-7-(6-methyl-1,6-diazaspiro[3.3]heptan-1-yl)phthalazin-1-amine] | 0.596 nM | 42.1 nM | 
21 | Cc1nnc(N[C@H](C)c2cccc(C(F)F)c2F)c2cc(N3CCC34CNC4)ncc12 [Example P-237, (R)-N-(1-(3-(difluoromethyl)-2-fluorophenyl)ethyl)-4-methyl-7-(1,6-diazaspiro[3.3]heptan-1-yl)pyrido[3,4-d]pyridazin-1-amine] | 0.515 nM | 182 nM | 
22 | Cc1nnc(N[C@H](C)c2cccc(C(F)F)c2F)c2cc(N3CCC34CN(C)C4)ncc12 [Example P-238, (R)-N-(1-(3-(difluoromethyl)-2-fluorophenyl)ethyl)-4-methyl-7-(6-methyl-1,6-diazaspiro[3.3]heptan-1-yl)pyrido[3,4-d]pyridazin-1-amine] | 0.4 nM | 17.7 nM | 
23 | Cc1nnc(N[C@H](C)c2cccc(C(F)F)c2F)c2cc(-c3ccc(=O)n(C)c3)ncc12 [Example P-239, (R)-5-(1-((1-(3-(difluoromethyl)-2-fluorophenyl)ethyl)amino)-4-methylpyrido[3,4-d]pyridazin-7-yl)-1-methylpyridin-2(1H)-one] | 15.1 nM | 606 nM | 
